Here are results for four molecules from patent US20130204033A1, “ANTIPROLIFERATIVE COMPOUNDS, CONJUGATES THEREOF, METHODS THEREFOR, AND USES THEREOF” (Medarex, Inc., priority 2009, published 2013).

What all share (assay type): cell-based, human
One assay concerns SW-620. The assay is described as follows: ATP luminescence proliferation assay, SW-620. Particulars: ATP luminescence, SW-620, 96 h incubation, read-out: EC50 SW-620 (96 h). As to the method:
(§1) This example generally describes the procedures used to assay the antiproliferative activity of compounds of this invention or their conjugates. Human tumor cell lines were obtained from the American Type Culture Collection (ATCC), P.O. Box 1549, Manassas, Va. 20108, USA, and cultured according to instruction from the ATCC. Cells were seeded at 1.0×10^3 or 1.0×10^4 cells/well in 96-well plates for 3 h for ATP assays or ^3H thymidine assays, respectively. 1:3 serial dilutions of free (unconjugated) compounds or their conjugates were added to the wells. Plates were allowed to incubate for 24 to 72 h. The ^3H thymidine plates were pulsed with 1.0 μCi of ^3H-thymidine per well for the last 24 hours of the total incubation period, harvested, and read on a Top Count Scintillation Counter (Packard Instruments, Meriden, Conn.). ATP levels in the ATP plates were measured using the […]-GLO® Luminescent Cell Viability kit following the manufacturer's manual and read on a GLOMAX® 20/20 luminometer (both from Promega, Madison, Wis., USA). The EC50 values—the concentration at which an agent inhibits or reduces cell proliferation by 50% —were determined using PRISM™ software, version 4.0 (GraphPad Software, La Jolla, Calif., USA).
(§2) Using the ^3H thymidine or the ATP luminescence assay, or both, the activities of compounds of this invention were assayed against the following cancer cell lines: HCT-15 (colorectal cancer, multi-drug resistant (MDR)); Hep3B (liver cancer); LNCaP (prostate cancer, androgen receptor positive (AR^+)); MDA-MB-231 (breast cancer, estrogen receptor, progesterone receptor, and Her2 negative (triple negative)); A2058 (melanoma); U-87 MG (glioblastoma); NCI-H460 (NSCLC); A549 (NSCLC); HPAC (pancreatic cancer, primary); PC3 (prostate cancer, AR); BT474 (breast cancer, Her2 highly positive (Her2hi)); SKOV3 (ovarian cancer, Her2hi); 786-O (renal cancer); UO-31 (renal cancer, MDR); NCI-H740 (SCLC); DMS53 (SCLC); SK-BR3 (breast cancer, Her2hi); ZR-75 (breast cancer, estrogen receptor positive); OVCAR3 (ovarian cancer); HL-60 (APL); OVCAR8/Adr (ovarian cancer, MDR); CEM-Cl (ALL); Nomo-1 (AML); RPMI-8226 (MM)); Raji (lymphoma); SW-480 (colorectal cancer, metastatic); SW-620 (colorectal cancer); and H226 (lung cancer). (Not all compounds were assayed against all cell lines.)
(§3) Table 3 provides the data for the ATP luminescence proliferation assays, with an incubation period of 48, 72, or 96 h, as noted.

The subject of another assay is HPAC. The assay is described as follows: ATP luminescence proliferation assay, HPAC. Particulars: ATP luminescence, 72 h incubation, read-out: EC50 HPAC (72 h). As to the method:
as §1, §2, §3

The test system of assay [1] is HL-60. Description: ATP luminescence proliferation assay, HL-60. Particulars: ATP luminescence, HL-60, 72 h incubation, read-out: EC50 HL-60 (72 h). The method in brief:
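Cells seeded at 1.0×10^3 cells/well for 3 h, then exposed to 1:3 serial dilutions of free compounds or conjugates for 48, 72 or 96 h, as noted. ATP measured by luminescent cell viability kit; EC50 taken as concentration reducing proliferation by 50%.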

The test system of assay [2] is OVCAR3. The assay is described as follows: ATP luminescence proliferation assay, OVCAR3. The settings on record: ATP luminescence, OVCAR3, 48 h incubation, read-out: EC50 OVCAR3 (48 h). A digest of the protocol: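 Free compounds and conjugates tested as 1:3 dilution series on cells seeded 3 h earlier at 1.0×10^3/well. Exposure 48, 72 or 96 h; ATP-based luminescence; EC50 taken at 50% proliferation reduction.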

Another assay has as its system RPMI-8226. Description: 3H thymidine proliferation assay, RPMI-8226. The settings on record: 3H thymidine method, 72 h incubation, read-out: EC50, RPMI-8226. As to the method: as §1, §2
(§4) Table 2 provides the data for proliferation assays using the ^3H thymidine method, with an incubation period of 72 h.

The subject of a further assay is UO-31. Description: 3H thymidine proliferation assay, UO-31. The settings on record: 3H thymidine method, 72 h incubation, read-out: EC50, UO-31. The protocol: as §1, §2, §4
A further assay relates to ZR-75. The assay is described as follows: ATP luminescence proliferation assay, ZR-75. Particulars: ATP luminescence. As to the method: as §1, §2, §3
For the next assay, the system named is NCI-H460. The assay is described as follows: ATP luminescence proliferation assay, NCI-H460. The settings on record: ATP luminescence, NCI-H460, 72 h incubation, read-out: EC50 NCI-H460 (72 h). As to the method: as §1, §2, §3
The subject of a further assay is SW-480. Description: ATP luminescence proliferation assay, SW-480. Particulars: ATP luminescence, SW480, 96 h incubation, read-out: EC50 SW480 (96 h). The protocol: as §1, §2, §3
The subject of another assay is 786-O. Description: 3H thymidine proliferation assay, 786-O. Particulars: 3H thymidine method, 72 h incubation, read-out: EC50, 786-O. The protocol: as §1, §2, §4
Another assay deals with U-87 MG. The assay is described as follows: ATP luminescence proliferation assay, U-87 MG. The settings on record: ATP luminescence, 72 h incubation, read-out: EC50 U-87 MG (72 h). As to the method:
as §1, §2, §3

The next assay has as its system HCT-15. The assay is described as follows: ATP luminescence proliferation assay, HCT-15. The settings on record: ATP luminescence, HCT-15, 72 h incubation, read-out: EC50 HCT-15 (72 h). The protocol: as §1, §2, §3
Assay [3] concerns HL-60. Description: 3H thymidine proliferation assay, HL-60. The settings on record: 3H thymidine method, 72 h incubation, read-out: EC50, HL-60. As to the method:
as §1, §2, §4

The subject of the next assay is CEM-Cl. Description: ATP luminescence proliferation assay, CEM-C1. Particulars: ATP luminescence, CEM-C1, 72 h incubation, read-out: EC50 CEM-C1 (72 h). The protocol: as §1, §2, §3
In another assay the test system is Raji. The assay is described as follows: 3H thymidine proliferation assay, Raji. The settings on record: 3H thymidine method, 72 h incubation, read-out: EC50, Raji. The protocol: as §1, §2, §4
For assay [4], the system named is OVCAR3. Description: 3H thymidine proliferation assay, OVCAR3. Particulars: 3H thymidine method, 72 h incubation, read-out: EC50, OVCAR3. The protocol:
as §1, §2, §4

In another assay the test system is PC3. The assay is described as follows: 3H thymidine proliferation assay, PC3. The settings on record: 3H thymidine method, 72 h incubation, read-out: EC50, PC3. As to the method:
as §1, §2, §4

Another assay has as its system SK-BR3. The assay is described as follows: 3H thymidine proliferation assay, SK-BR3. Particulars: 3H thymidine method, 72 h incubation. As to the method: as §1, §2, §4
The mark [5] stands for this setting: Homo sapiens, ZR75, ZR-75, 72 h incubation, read-out: EC50 ZR-75 (72 h).
The mark [6] stands for this setting: ZR-75, 48 h incubation, read-out: EC50 ZR-75 (48 h).

The structures appear in SMILES notation. Read-outs that look alike come from different tables or passages of the source.

Usually EC50 stands for the concentration giving half of the maximal effect. In the case of `Nc1ccc(C(=O)Nc2ccc3[nH]c(C(=O)N4C[C@@H](CCl)c5c4cc(O)c4ccccc54)cc3c2)cc1` [CBI, reference compound], the EC50 came to 0.33 nM in the assay with SW-620 (Homo sapiens); 6 nM in the assay on HPAC (Homo sapiens); 0.76 nM in the assay on HL-60 [1] (Homo sapiens); 4.1 nM in the assay with OVCAR3 [2] (Homo sapiens, OVCAR-3); 0.12 nM with RPMI-8226 (Homo sapiens, RPMI-8226); 0.035 nM with UO-31 (Homo sapiens, UO-31). Moreover, the EC50 with ZR-75 (setting [5]) amounted to 2.2 nM; with NCI-H460 (Homo sapiens), 0.64 nM; in the assay with SW-480 (Homo sapiens), 0.92 nM; in the assay on 786-O (Homo sapiens, 786-0), 0.035 nM; in the assay with U-87 MG (Homo sapiens), 3.3 nM; in the assay on HCT-15 (Homo sapiens), 3.4 nM. Besides, the half-maximal effective concentration (EC50) came out at 0.027 nM with HL-60 [3] (Homo sapiens, HL-60); 0.55 nM with CEM-Cl (Homo sapiens); 0.013 nM with Raji (Homo sapiens, Raji); 0.071 nM with OVCAR3 [4] (Homo sapiens, OVCAR-3); 0.049 nM in the assay with PC3 (Homo sapiens, PC-3).
Regarding `CCC[C@H](NC(=O)[C@H](Cc1ccccc1)NC(=O)c1csc([C@@H](C[C@H](C(C)C)N(C)C(=O)[C@@H](NC(=O)[C@H]2CCCCN2C)[C@@H](C)CC)OC)n1)C(=O)OC` [Compound 19], the EC50 with SW-620 was 14 nM; with HPAC, 0.33 nM; with HL-60 [1] it was 7.7 nM; in the assay with OVCAR3 [2], 25 nM; in the assay with RPMI-8226 it was 23 nM; in the assay with UO-31, above 100 nM. The concentration for a half-maximal effect (EC50) in the assay with ZR-75 (setting [6]) was 20 nM; in the assay on NCI-H460, 43 nM; in the assay with SW-480, 52 nM; in the assay on 786-O, above 100 nM; with U-87 MG, above 100 nM; in the assay on HCT-15, 245 nM. Moreover, the EC50 with HL-60 [3] was 37 nM; in the assay with CEM-Cl, 11 nM; in the assay on Raji it was 32 nM; in the assay on OVCAR3 [4] it was 53 nM; with SK-BR3 it was above 100 nM; with PC3 it was above 100 nM.
For `CC[C@H](C)[C@H](NC(=O)[C@H]1CCCCN1C)C(=O)N(C)[C@H](C[C@@H](OC)c1nc(C(=O)N[C@@H](Cc2ccc(N)cc2)CC(C)C(=O)O)cs1)C(C)C` (stereo partly drawn) [Compound 51], the EC50 in the assay with SW-620 worked out at 6.4 nM; in the assay on HPAC, 4.5 nM; in the assay on OVCAR3 [2], 5.5 nM; in the assay on RPMI-8226, 2.2 nM; with UO-31, 35 nM; in the assay with ZR-75 (setting [6]) it was 19 nM. Further, the EC50 in the assay with NCI-H460 was 14 nM; with SW-480 it was 13 nM; with 786-O, 10 nM; in the assay on U-87 MG it was 7.6 nM; with HCT-15, 93 nM; in the assay with HL-60 [3] it was 4.2 nM. Besides, the EC50 in the assay on CEM-Cl was 4.8 nM; in the assay on Raji, 1.5 nM; in the assay on OVCAR3 [4], 2.5 nM; with SK-BR3 it was above 100 nM; in the assay with PC3 it was 5.6 nM.
As for `COc1cccc2c1C(=O)c1c(O)c3c(c(O)c1C2=O)C[C@@](O)(C(=O)CO)C[C@@H]3O[C@H]1C[C@H](N)[C@H](O)[C@H](C)O1` [Dox, doxorubicin, reference compound], the EC50 was 145 nM with SW-620 (Homo sapiens); 215 nM in the assay with HPAC (Homo sapiens); 147 nM with HL-60 [1] (Homo sapiens); 632 nM with OVCAR3 [2] (Homo sapiens, OVCAR-3); 68 nM in the assay with RPMI-8226 (Homo sapiens, RPMI-8226); 267 nM in the assay with UO-31 (Homo sapiens, UO-31). Moreover, the EC50 in the assay on ZR-75 (setting [5]) turned out to be 236 nM; in the assay with NCI-H460 (Homo sapiens) it was 92 nM; in the assay with SW-480 (Homo sapiens) it was 215 nM; in the assay with 786-O (Homo sapiens, 786-0) it was 168 nM; in the assay on U-87 MG (Homo sapiens), 324 nM; in the assay on HCT-15 (Homo sapiens) it was 600 nM. The EC50 was found to be 56 nM in the assay on HL-60 [3] (Homo sapiens, HL-60); 161 nM in the assay with CEM-Cl (Homo sapiens); 61 nM in the assay with Raji (Homo sapiens, Raji); 258 nM in the assay on OVCAR3 [4] (Homo sapiens, OVCAR-3); 276 nM with PC3 (Homo sapiens, PC-3).
